Results from patent US20230212571A1, “COMPOSITIONS AND METHODS FOR DELIVERING POLYNUCLEOTIDES” (NeOnc Technologies, Inc., priority 2020, published 2023).

System: BEC
Assay: ELISA of control BEC supernatants
Assay type: cell-based, human
Source text: Human surgical specimens were obtained following written informed consent from patients in accordance with Declaration of Helsinki guidelines and the Institutional Review Board (HS-04B053), at Keck School of Medicine, USC. AVM-BECs were isolated from brain tissues of patients who underwent microsurgical AVM resection. Control BECs were isolated from the structurally normal […] of patients who underwent temporal lobectomy for intractable epilepsy. Endothelial cell (EC) isolation and culture were described^5,9. (Stapleton C J, Armstrong D L, Zidovetzki R, Liu C Y, Giannotta S L, Hofman F M. Thrombospondin-1 modulates the angiogenic phenotype of human cerebral arteriovenous malformation endothelial cells. Neurosurgery. 2011; 68(5):1342-1353) (Ferreira R, Santos T, Amar A, et al. Argonaute-2 promotes miR-18a entry in human brain endothelial cells. J Am Heart Assoc. 2014; 3(3):e000968) ECs were only used between passages 3-5. Experiments were performed under shear flow conditions (12 dyn/cm^2) to reproduce arterial flow^6. (Ferreira R, Santos T, Amar A, et al. MicroRNA-18a improves human cerebral arteriovenous malformation endothelial cell function. Stroke. 2014; 45(1):293-297). For hypoxic experiments, cells were cultured in a Galaxy 48R (Eppendorf) incubator at 3% O2. MicroRNAs were co-administered with Ago-2 to increase the cellular uptake of miR-18a^9 (Ferreira R, Santos T, Amar A, et al. Argonaute-2 promotes miR-18a entry in human brain endothelial cells. J Am Heart Assoc. 2014; 3(3):e000968) (FIG. 9). Methods regarding cell treatments and transfections were included in Data.
Small interfering RNA transfection was performed as previously described^5. Briefly, ECs were transfected with small interfering RNA (siRNA) against ID1 or PAI-1 (Thermo Fisher Scientific), or small interfering control (Santa Cruz Biotechnology) constructs using Lipofectamine RNAiMax (Thermo Fisher Scientific) per the manufacturer's instructions. Knockdown of ID1 or PAI-1 was confirmed by quantitative real-time polymerase chain reaction as described^6 (FIG. 19). The sequences of the forward and reverse primers for ID1 and PAI-1 were included in Table 2.
Plasmid constructs pcDNA3-ALK2^WT (Addgene #80870) and pcDNA3-ALK2^Q207D (Addgene #80871) were a gift from Aristidis Moustakas^7. (Meyer B, Schaller C, Frenkel C, Ebeling B, Schramm J. Distributions of local oxygen saturation and its response to changes of mean arterial blood pressure in the cerebral cortex adjacent to arteriovenous malformations. Stroke. 1999; 30(12):2623-2630) 10^4 AVM-BEC were seeded 24 h before transfection. The plasmid vector containing the 3′ untranslated region (3′UTR) of human BMP4, pRP [Exp]-Puro-CMV>Luciferase:{hBMP4_3′UTR}, was constructed and packaged by VectorBuilder. The vector ID is VB200205-1078zdv, which can be used to retrieve detailed information about the vector on vectorbuilder.com. Transient transfections were performed with Lipofectamine RNAiMax (Thermo Fisher Scientific) according to the manufacturer's instructions. After 4 h, medium was replaced by fresh medium containing microRNA.
MiR-18a (hsa-miR-18a-5p, 40 nM, Dharmacon) or a scramble microRNA (40 nM, Dharmacon) in nuclease-free water was added with argonaute 2 (Ago-2, 0.4 nM, Abcam) as the microRNA carrier and stabilizer^9. (Ferreira R, Santos T, Amar A, et al. Argonaute-2 promotes miR-18a entry in human brain endothelial cells. J Am Heart Assoc. 2014; 3(3):e000968). No transfection reagent was used with miR-18a or scramble microRNA treatments. Recombinant human TSP-1 (R&D Systems) stock solution was prepared in PBS and further diluted in culture medium to be used at a final concentration of 1000 ng/mL. Cells were treated during 24 h for mRNA and 48 h for protein expression studies. NEO100 (NeOnc Technologies) stock was prepared in DMSO and used immediately or stored at −20° C. […]

[1] = control BEC supernatants, normoxia

For “hsa-miR-18a-5p (UAGGUGCAUCUAGUGCAGAUAG; chemistry not given here; listed as Homo sapiens) [small non-coding RNA molecule involved in post-transcriptional regulation of gene expression; Dharmacon]”, which “VEGF secretion (ELISA)” value (BEC transfected with ALK2, P>0.9999) is on record?
The value was “No significant changes”.

What about the “levels of secreted PAI-1” value [1] of the same substance?
The value was “without affecting control BEC”.

What about the “levels of secreted VEGF” value [1] of the same substance?
The value was “without affecting control BEC”.

And the “levels of secreted VEGF” value (control BEC transfected with siCTL)?
Its value is “without affecting control BEC”.
